Experimental data from US7897578B2, “Peptides with anti-proliferative activity” (Societe de Conseils de Recherches et d'Applications …, priority 2006, dated 2011).
No end group written: not given here.

How the values were obtained:
[1] = Toxicity test in xenografted athymic mice (weight of the animals); type: in vivo; details: 5 and 10 mg/kg intra-peritoneal
Method: 4/Toxicity Test of Compound 1:
Cancerous cells from human SHSY-5Y neuroblastomas (Code ATCC: CRL-2266) are cultured in DMEM medium (Dulbecco's Modified Eagle's Medium) containing 100 U/ml of penicillin and 100 μg/ml of streptomycin sulphate, complemented with 10% foetal calf serum. The cells thus cultured are then xenografted by sub-cutaneous route into the flanks of athymic mice.
After a latent period of several days, the SHSY-5Y cells proliferate and form a small, obvious tumour (approximately 70 mm^3).
Compound 1, at this stage of the tumour's growth, is injected by intra-peritoneal route in doses of 5 and 10 mg/kg.
The results are reproduced in FIG. 3 describing the development of the weight of the animals as a function of time, which is an indicator of the possible toxicity of the products tested in this athymic mouse model.

[2] = test system: human SHSY-5Y neuroblastoma tumour xenograft; assay: In vivo cell proliferation test, SHSY-5Y cells xenografted into athymic mice; parameters: species or system athymic balb-c NCr-nu/nu mice; details: for reduction in the size of the tumour: after 21 days
Method: 3/In vivo Cell Proliferation Test on Cells of the SHSY-5Y Type with Compound 1:
Cancerous cells from human SHSY-5Y neuroblastomas (Code ATCC: CRL-2266) are cultured in DMEM medium (Dulbecco's Modified Eagle's Medium) containing 100 U/ml of penicillin and 100 μg/ml of streptomycin sulphate, complemented with 10% foetal calf serum. The cells thus cultured are then xenografted by sub-cutaneous route into the flanks of athymic balb-c NCr-nu/nu mice, aged 4 to 6 weeks.
After a latent period of several days following the graft, the SHSY-SY cells proliferate and form a small tumour (approximately 70 mm^3) which is obvious under the flank of the animal.
Compound 1 is, at this stage of growth of the tumour, injected by intra-peritoneal route in doses of 5 and 10 mg/kg.
The results are reproduced in FIG. 2 describing the effect of compound 1 on growth kinetics and tumour volume.

YTVLSVGPGGLRSGRLPLQPRVQLDER-NH2 [Compound 1]
toxicity ([1]; inferred from animal weight): apparent absence of toxicity | effect on the weight of the animals ([1]; xenografted athymic mice): no effect | growth kinetics of the tumour ([2]; 5 mg/kg intra-peritoneal): slowing down | reduction in the size of the tumour ([2]; 5 mg/kg intra-peritoneal): approximately 20% | growth kinetics of the tumour ([2]; 10 mg/kg intra-peritoneal): very clear slowing down | reduction in the size of the tumour ([2]; 10 mg/kg intra-peritoneal): approximately 50% | anti-tumour activity ([2]; intra-peritoneal, 5 and 10 mg/kg, SHSY-5Y xenograft): dose-dependant anti-tumour activity
